Legend:
[1] = tested on: HUVECs; assay: Cell lysate / ATP control experiments for Ca2+ signaling with and without microtsunami exposure; format: cell-based, human
Protocol: HUVECs grown in a tissue culture flask at full confluency were resuspended in standard HBSS- at a concentration of 1.5×10^7 cells/mL. Cell lysate solution was prepared by subjecting this solution to repeated freeze-thaw cycles at −80° C. and then sonicated on ice for 30 s.
Exposure to cell lysate alone was confirmed as not responsible for the observed Ca^2+ dynamics. Cells were dosed with a solution of cell lysate immediately following microtsunami exposure. In addition, cells were exposed to cell lysate alone. As positive controls, the Ca^2+ signaling response produced by ATP was measured with and without microtsunami exposure. As a negative control, Ca^2+ signaling without cell lysate, ATP, or microtsunami exposure was measured.
Probability of Ca2+ signaling produced by microtsunami exposure is plotted as a function of distance from the site of laser microbeam irradiation. Two control experiments were conducted to test whether the observed Ca^2+ was due to cellular exposure to cell lysate produced by the microtsunami. In the first, 150 μL of cell lysate was administered following a Ca^2+ signaling event generated by microtsunami exposure. […] Both experiments elicited an average signaling probability of <1%. […] The reduced ATP signaling probability following microtsunami exposure was due to cell lysis/necrosis produced by the microtsunami.

[2] = 2-APB 10 μM, 30 μM or 100 μM; cited from earlier work
[3] = tested on: HUVECs; assay: 96-well plate screen of microtsunami-generated Ca2+ signaling, percentage of cells signaling 100-150 μm from μCB center; format: cell-based, human; details: 96-well screen; for effect on microtsunami-induced Ca2+ signaling in Ca2+ containing media: HHBSS+ with 2 g/L D-glucose, FIG. 9D columns 8-10; for effect on microtsunami-induced Ca2+ signaling in Ca2+ free media: HHBSS- with 3 mM EGTA, 2-APB 10-100 μM, PP2 10 μM, Verapamil 50 nM, FIG. 9D columns 1-5
Protocol: 96 well plates (Invitro-Scientific) were coated with fibronectin and P4 HUVECs were plated in each well. […] DMSO was also added as a control corresponding to the highest amount added from solution of the drugs, 0.3%. The first seven columns contained the previously used HHBSS- with 3 mM EGTA and the last five columns contained HHBSS+ supplemented with 2 g/L D-glucose.
The experiments were performed in a 96-well plate where twelve conditions, each with eight replicates, were tested for their potential effect on μTsunami generated Ca^2+ signaling.

Row | Compound | average Ca2+ signaling probability, substance given following microtsunami exposure ([1]; administered after microtsunami, ATP 50 μM, cell lysate 150 μL) [%] | average Ca2+ signaling probability, substance given without microtsunami exposure ([1]; no microtsunami, ATP 50 μM) [%] | Ca2+ signaling response (in words) ([1]; with and without microtsunami exposure) | inhibition of Ca2+ release following stimulation using a bolus of ATP [2] | effect on microtsunami-induced Ca2+ signaling in Ca2+ containing media [3] | effect on microtsunami-induced Ca2+ signaling in Ca2+ free media [3]
1 | Nc1ncnc2c1ncn2[C@@H]1O[C@H](COP(=O)(O)OP(=O)(O)OP(=O)(O)O)[C@@H](O)[C@H]1O [ATP] | 60 | > 90 | strong Ca^2+ signaling response |  |  | 
2 | NCCOB(c1ccccc1)c1ccccc1 [2-APB, 2-Aminoethoxydiphenylborate] |  |  |  | dose-dependent inhibition of Ca^2+ release | suppression of signaling | dose-dependent inhibitory effect
3 | CC(C)(C)n1nc(-c2ccc(Cl)cc2)c2c(N)ncnc21 [PP2] |  |  |  |  | significant microtsunami-induced mechanosignaling was observed | neither PP2 nor Verapamil (FIG. 9D, columns 4, 5) affected Ca^2+ signaling
